Here are results for 13 molecules from patent US20240150368A1, “ULK INHIBITORS AND METHODS OF USE THEREOF” (Deciphera Pharmaceuticals, LLC, priority 2022, published 2024).

The subject of assay [1] is ULK kinase substrate ATG13 (pS318-ATG13) in MiaPaCa-2 cells. Kind of assay: pATG13 levels of mutant KRas MiaPaCa-2 cells after treatment with ULK inhibitors in combination with trametinib (ELISA). Type of assay: cell-based, human. An outline of the steps:
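MiaPaCa-2 cells grown overnight, then dosed with test compound titration plus trametinib (final 250 nM) or DMSO, overnight at 37° C. Lysate pS318-ATG13 measured by sandwich ELISA (total ATG13 capture, biotinylated pS318 detection, HRP/TMB, A450 minus A540); % phosphorylation vs control wells fitted to IC50.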
(In an ELISA, binding on a coated surface is turned into a signal by an enzyme label.)

A further assay addresses T1, ULK2 kinase (Homo sapiens, UniProt Q8IYT8).
T1 construct: (residues 1-306 with N-terminal GST and His tag; ID NO: 2); purchased Signal Chem U02-11G
Kind of assay: Biochemical assay for ULK2 (coupled pyruvate kinase/lactate dehydrogenase assay). Particulars: 1 mM ATP, 1 nM ULK2; read-out: ULK2 (inhibition of biochemical activity), IC50. Summed up: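 Continuous PK/LDH-coupled NADH oxidation assay (A340) with 1 nM ULK2, 200 μM ULKtide and 1 mM ATP in Tris pH 7.5, 15 mM MgCl2, 1% DMSO, read 6 h at 30° C. Rates from the 2-3 h window converted to percent inhibition against no-compound and known-inhibitor controls; IC50 by four-parameter sigmoidal fit.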

In a further assay the target is T2, ULK1 kinase (Homo sapiens, UniProt O75385, E37A/K38A).
T2 construct: (residues 1-283; ID NO: 1); purchased Beryllium
T2 sequence (O75385 1-283 E37A/K38A): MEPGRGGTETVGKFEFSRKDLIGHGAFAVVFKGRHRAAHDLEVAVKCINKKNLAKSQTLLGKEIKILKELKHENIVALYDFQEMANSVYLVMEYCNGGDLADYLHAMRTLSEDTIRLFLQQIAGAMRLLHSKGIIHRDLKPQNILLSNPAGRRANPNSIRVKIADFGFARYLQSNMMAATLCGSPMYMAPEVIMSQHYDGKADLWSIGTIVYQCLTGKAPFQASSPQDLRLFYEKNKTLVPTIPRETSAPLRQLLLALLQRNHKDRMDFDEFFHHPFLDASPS
Kind of assay: Biochemical assay for ULK1 (coupled pyruvate kinase/lactate dehydrogenase assay). The settings on record: 1 mM ATP, 0.1 nM ULK1; read-out: ULK1 (inhibition of biochemical activity), IC50. Summed up: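 IC50 values were fitted to percent inhibition, normalised with no-compound and known-inhibitor controls, using rates from 2–3 h of a 6 h read at 30 °C. ADP was coupled through pyruvate kinase/lactate dehydrogenase to NADH loss at 340 nm.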

T1 sequence (Q8IYT8 with tags, fused parts or gaps): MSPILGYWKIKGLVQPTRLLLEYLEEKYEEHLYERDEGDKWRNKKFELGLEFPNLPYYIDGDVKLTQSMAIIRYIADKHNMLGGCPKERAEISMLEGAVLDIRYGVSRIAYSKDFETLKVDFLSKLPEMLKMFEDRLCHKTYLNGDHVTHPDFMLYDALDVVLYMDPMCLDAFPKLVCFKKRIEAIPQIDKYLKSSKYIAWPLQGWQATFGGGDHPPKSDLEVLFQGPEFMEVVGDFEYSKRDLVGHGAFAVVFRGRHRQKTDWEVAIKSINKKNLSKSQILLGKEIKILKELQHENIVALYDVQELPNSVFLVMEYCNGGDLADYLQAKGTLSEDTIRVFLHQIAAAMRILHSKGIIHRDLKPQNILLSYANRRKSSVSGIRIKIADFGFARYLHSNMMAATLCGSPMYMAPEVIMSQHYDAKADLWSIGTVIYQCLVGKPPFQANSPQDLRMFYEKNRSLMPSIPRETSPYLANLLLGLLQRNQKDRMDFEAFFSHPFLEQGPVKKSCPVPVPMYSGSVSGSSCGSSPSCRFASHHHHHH

As for `CC/C(Nc1cnn(CC(C)OC)c1)=C1/C(=O)Nc2ccc(C(=O)NCC(F)(F)F)cc21` (stereo not drawn) [Example 157], the IC50 – broadly, the concentration that gives 50% inhibition – in assay [1] was ≤ 100 nM; at ULK2 kinase it was 100 to 500 nM; at ULK1 kinase, 10 to 100 nM.

For the molecule `CC/C(Nc1cnn(C2CCN(C)CC2)c1)=C1/C(=O)Nc2ccc(C(=O)NC[C@H]3CCCO3)cc21` [Example 51], the IC50 in assay [1] is ≤ 100 nM; on ULK2 kinase it was 10 to 100 nM; at ULK1 kinase, ≤ 10 nM.

Consider `CC/C(Nc1cnn(C(C)C)c1)=C1/C(=O)Nc2ccc(C(=O)NCC(C)(C)F)cc21` [Example 135], for which the half-inhibitory concentration (IC50) in assay [1] was ≤ 100 nM; at ULK2 kinase, 10 to 100 nM; at ULK1 kinase, ≤ 10 nM.

`CC/C(Nc1cnn(C2COC2)c1)=C1/C(=O)Nc2ccc(C(=O)NCC(F)(F)F)cc21` [Example 118]: the figures for the IC50 (in assay [1]; at ULK2 kinase; on ULK1 kinase) were ≤ 100 nM, 10 to 100 nM and ≤ 10 nM, respectively.

`CC/C(Nc1cnn(C(C)C)c1)=C1/C(=O)Nc2ccc(C(=O)NCCC(F)(F)F)cc21` [Example 166]: the IC50 is ≤ 100 nM in assay [1], ≤ 10 nM on ULK2 kinase and ≤ 10 nM on ULK1 kinase.

Turning to `CC/C(Nc1cnn(C(C)C)c1)=C1/C(=O)Nc2ccc(C(=O)NCC(C)(C)OC)cc21` [Example 148], the half-inhibitory concentration (IC50) lay in the range of 100 to 300 nM in assay [1], 100 to 500 nM on ULK2 kinase and 10 to 100 nM at ULK1 kinase.

For the molecule `CC/C(Nc1cnn(C(F)(F)F)c1)=C1/C(=O)Nc2ccc(C(=O)NCC(F)(F)F)cc21` [Example 113], the half-inhibitory concentration (IC50) in assay [1] is ≤ 100 nM; on ULK2 kinase, 10 to 100 nM; at ULK1 kinase it was 10 to 100 nM.

For `CC/C(Nc1cnn(C(C)CC)c1)=C1/C(=O)Nc2ccc(C(=O)NCC(F)(F)F)cc21` (stereo not drawn) [Example 159], the IC50 in assay [1] was ≤ 100 nM; on ULK2 kinase, 10 to 100 nM; at ULK1 kinase, 10 to 100 nM.

For the molecule `CC/C(Nc1cnn(C2CCN(C(C)C)CC2)c1)=C1/C(=O)Nc2ccc(C(=O)NCC3CCCC3)cc21` [Example 44], the IC50 was ≤ 100 nM in assay [1], ≤ 10 nM at ULK2 kinase and ≤ 10 nM at ULK1 kinase.

Take `CC/C(Nc1cnn(C(F)F)c1)=C1/C(=O)Nc2ccc(C(=O)NCC(C)C)cc21` [Example 147]: the 50% inhibitory concentration (IC50) was ≤ 100 nM in assay [1], 100 to 500 nM on ULK2 kinase and 10 to 100 nM on ULK1 kinase.

Turning to `CC/C(Nc1cnn(C2CCN(C(C)C)CC2)c1)=C1/C(=O)Nc2ccc(C(=O)NCCOC)cc21` [Example 98], the 50% inhibitory concentration (IC50) in assay [1] was ≤ 100 nM; at ULK2 kinase, 100 to 500 nM; on ULK1 kinase, ≤ 10 nM.

Turning to `CC/C(Nc1ccc(N2CC3(CN(C)C3)C2)cc1)=C1/C(=O)Nc2ccc(C(=O)NCC(F)(F)F)cc21` [Example 62], the IC50 in assay [1] is ≤ 100 nM; at ULK2 kinase it was 10 to 100 nM; on ULK1 kinase, ≤ 10 nM.

On to `CC/C(Nc1cnn(C2CCN(C(C)C)CC2)c1)=C1/C(=O)Nc2ccc(C(=O)NCC(C)(C)OC)cc21` [Example 27], for which the half-inhibitory concentration (IC50) in assay [1] is ≤ 100 nM; on ULK2 kinase, 100 to 500 nM; at ULK1 kinase, 10 to 100 nM.
